Data on 5 molecules can be found in PubChem BioAssay AID1259407 (Chemical Carcinogenesis Research Information System (CCRIS), 2018).

Activity calls are given as the source filed them. The rule behind the calls is not given here.

The subject of this series is CCRIS mutagenicity, Ames/micronucleus/aberration tests. In words: CCRIS mutagenicity studies.
Where [1] appears, read: Test System: MOUSE LYMPHOMA, Strain/Indicator: L5178Y (TK+/TK-), Metabolic Activation: NONE, Method: SUSPENSION/PLATE.
[2] abbreviates: Test System: MOUSE LYMPHOMA, Strain/Indicator: L5178Y (TK+/TK-), Metabolic Activation: RAT, LIVER, S-9, AROCLOR 1254, Method: SUSPENSION/PLATE.

As for `C[n+]1cccc(C(=O)[O-])c1`, the mutagenic call is “inactive; negative” (Test System: AMES SALMONELLA TYPHIMURIUM, Strain/Indicator: TA98, Metabolic Activation: HAMSTER, LIVER, S-9, AROCLOR 1254, Method: STANDARD PLATE); “inactive; negative” (Test System: AMES SALMONELLA TYPHIMURIUM, Strain/Indicator: TA98, Metabolic Activation: NONE, Method: STANDARD PLATE); “active; positive” (Test System: AMES SALMONELLA TYPHIMURIUM, Strain/Indicator: TA98, Metabolic Activation: RAT LIVER S-9, CHLOROPHENE, Method: STANDARD PLATE (COMPOUND HEATED AT 250 DEGREES CELSIUS FOR 20 MIN)); “inactive; negative” (Test System: AMES SALMONELLA TYPHIMURIUM, Strain/Indicator: TA98, Metabolic Activation: RAT, LIVER, S-9, AROCLOR 1254, Method: STANDARD PLATE); “inactive; negative” (Test System: AMES SALMONELLA TYPHIMURIUM, Strain/Indicator: TA100, Metabolic Activation: HAMSTER, LIVER, S-9, AROCLOR 1254, Method: STANDARD PLATE); “inactive; negative” (Test System: AMES SALMONELLA TYPHIMURIUM, Strain/Indicator: TA100, Metabolic Activation: NONE, Method: STANDARD PLATE). Also, the mutagenic call is, setting by setting: (Test System: AMES SALMONELLA TYPHIMURIUM, Strain/Indicator: TA100, Metabolic Activation: RAT, LIVER, S-9, AROCLOR 1254, Method: STANDARD PLATE) “inactive; negative”; (Test System: AMES SALMONELLA TYPHIMURIUM, Strain/Indicator: TA1535, Metabolic Activation: HAMSTER, LIVER, S-9, AROCLOR 1254, Method: STANDARD PLATE) “inactive; negative”; (Test System: AMES SALMONELLA TYPHIMURIUM, Strain/Indicator: TA1535, Metabolic Activation: NONE, Method: STANDARD PLATE) “inactive; negative”; (Test System: AMES SALMONELLA TYPHIMURIUM, Strain/Indicator: TA1535, Metabolic Activation: RAT, LIVER, S-9, AROCLOR 1254, Method: STANDARD PLATE) “inactive; negative”; (Test System: AMES SALMONELLA TYPHIMURIUM, Strain/Indicator: TA1537, Metabolic Activation: HAMSTER, LIVER, S-9, AROCLOR 1254, Method: STANDARD PLATE) “inactive; negative”; (Test System: AMES SALMONELLA TYPHIMURIUM, Strain/Indicator: TA1537, Metabolic Activation: NONE, Method: STANDARD PLATE) “inactive; negative”. In addition, the mutagenic call was “inactive; negative” (Test System: AMES SALMONELLA TYPHIMURIUM, Strain/Indicator: TA1537, Metabolic Activation: RAT, LIVER, S-9, AROCLOR 1254, Method: STANDARD PLATE); “inactive; negative” (Test System: AMES SALMONELLA TYPHIMURIUM, Strain/Indicator: TA1538, Metabolic Activation: HAMSTER, LIVER, S-9, AROCLOR 1254, Method: STANDARD PLATE); “inactive; negative” (Test System: AMES SALMONELLA TYPHIMURIUM, Strain/Indicator: TA1538, Metabolic Activation: NONE, Method: STANDARD PLATE); “inactive; negative” (Test System: AMES SALMONELLA TYPHIMURIUM, Strain/Indicator: TA1538, Metabolic Activation: RAT, LIVER, S-9, AROCLOR 1254, Method: STANDARD PLATE); “inactive; negative. reevaluation of results: inconclusive” under setting [1]; “inactive; negative. reevaluation of results: inconclusive” under setting [2].
Turning to `COc1ccc2c(cc3c4c(cc5c(c42)OCO5)C(=O)C(=O)N3C)c1OC`, the mutagenic call reads like this: (Test System: AMES SALMONELLA TYPHIMURIUM, Strain/Indicator: TA98, Metabolic Activation: RAT, LIVER, S-9, PHENOBARBITAL AND BETA-NAPHTHOFLAVONE, Method: PREINCUBATION) “active; positive”; (Test System: AMES SALMONELLA TYPHIMURIUM, Strain/Indicator: TA100, Metabolic Activation: RAT, LIVER, S-9, PHENOBARBITAL AND BETA-NAPHTHOFLAVONE, Method: PREINCUBATION) “active; positive”.
Turning to `CC(C)CCC[C@@H](C)[C@H]1CC[C@H]2[C@@H]3C[C@H]4O[C@]45C[C@@H](O)CC[C@]5(C)[C@H]3CC[C@]12C`, the mutagenic call (Test System: CHINESE HAMSTER V-79, Strain/Indicator: V-79/6-THIOGUANINE, Metabolic Activation: NONE) was “active; positive” and the mutagenic call (Test System: CHINESE HAMSTER V-79, Strain/Indicator: V-79/OUABAIN, Metabolic Activation: NONE) is “inactive; negative”.
`CC(=O)Nc1ccc(-c2ccc(NO)cc2)cc1`: the mutagenic call (Test System: CHINESE HAMSTER OVARY, Strain/Indicator: CHO-K1-BH4 (HGPRT), Metabolic Activation: NONE, Method: SUSPENSION) is “active; positive”.
Turning to `COc1ccc(C=O)cc1`, the mutagenic call runs as follows: (Test System: AMES SALMONELLA TYPHIMURIUM, Strain/Indicator: TA97, Metabolic Activation: NONE, Method: PREINCUBATION) “inactive; negative”; (Test System: AMES SALMONELLA TYPHIMURIUM, Strain/Indicator: TA97, Metabolic Activation: RAT, LIVER, S-9, AROCLOR 1254, Method: PREINCUBATION) “inactive; negative”; (Test System: AMES SALMONELLA TYPHIMURIUM, Strain/Indicator: TA98, Metabolic Activation: NONE, Method: PREINCUBATION) “inactive; negative”; (Test System: AMES SALMONELLA TYPHIMURIUM, Strain/Indicator: TA98, Metabolic Activation: RAT LIVER S-9, PHENOBARBITAL AND BETA-NAPHTHOFLAVONE, Method: PREINCUBATION) “inactive; negative”; (Test System: AMES SALMONELLA TYPHIMURIUM, Strain/Indicator: TA100, Metabolic Activation: NONE, Method: PREINCUBATION) “inactive; negative”; (Test System: AMES SALMONELLA TYPHIMURIUM, Strain/Indicator: TA100, Metabolic Activation: RAT LIVER S-9, PHENOBARBITAL AND BETA-NAPHTHOFLAVONE, Method: PREINCUBATION) “inactive; negative”. In addition, the mutagenic call (Test System: AMES SALMONELLA TYPHIMURIUM, Strain/Indicator: TA102, Metabolic Activation: NONE, Method: PREINCUBATION) was “inactive; negative”; the mutagenic call (Test System: AMES SALMONELLA TYPHIMURIUM, Strain/Indicator: TA102, Metabolic Activation: RAT, LIVER, S-9, AROCLOR 1254, Method: PREINCUBATION) was “inactive; negative”; the mutagenic call (Test System: AMES SALMONELLA TYPHIMURIUM, Strain/Indicator: TA1535, Metabolic Activation: NONE, Method: PREINCUBATION) is “inactive; negative”; the mutagenic call (Test System: AMES SALMONELLA TYPHIMURIUM, Strain/Indicator: TA1535, Metabolic Activation: RAT LIVER S-9, PHENOBARBITAL AND BETA-NAPHTHOFLAVONE, Method: PREINCUBATION) is “inactive; negative”; the mutagenic call (Test System: AMES SALMONELLA TYPHIMURIUM, Strain/Indicator: TA1537, Metabolic Activation: NONE, Method: PREINCUBATION) is “inactive; negative”; the mutagenic call (Test System: AMES SALMONELLA TYPHIMURIUM, Strain/Indicator: TA1537, Metabolic Activation: RAT LIVER S-9, PHENOBARBITAL AND BETA-NAPHTHOFLAVONE, Method: PREINCUBATION) was “inactive; negative”. Moreover, the mutagenic call was “inactive; negative” (Test System: AMES SALMONELLA TYPHIMURIUM, Strain/Indicator: TA1538, Metabolic Activation: NONE, Method: PREINCUBATION); “inactive; negative” (Test System: AMES SALMONELLA TYPHIMURIUM, Strain/Indicator: TA1538, Metabolic Activation: RAT LIVER S-9, PHENOBARBITAL AND BETA-NAPHTHOFLAVONE, Method: PREINCUBATION); “inactive; negative” (Test System: E. COLI, Strain/Indicator: WP2UVRA, Metabolic Activation: NONE, Method: PREINCUBATION); “inactive; negative” (Test System: E. COLI, Strain/Indicator: WP2UVRA, Metabolic Activation: RAT LIVER S-9, PHENOBARBITAL AND BETA-NAPHTHOFLAVONE, Method: PREINCUBATION); “active; positive” under setting [1]; “active; positive. reevaluation of results: positive” under setting [2]. Further, the mutagenic call (Test System: Mouse lymphoma, Strain/Indicator: L5178Y (tk+/tk-), Metabolic Activation: None, Method: Suspension/plate) is “inactive; negative”.
